Results as given in patent US8158638B2, “Pyrazolopyrimidine derivative” (Daiichi Sankyo Company, Limited, priority 2006, dated 2012).
Like-named read-outs stand apart in the source and are kept apart here.

How the values were obtained:
[1] = system: human breast cancer cell line SK-BR-3; assay: Cell growth inhibition assay (MTT), SK-BR-3; assay type: cell-based; conditions: Homo sapiens, read-out: GI50 value (50% growth inhibitory concentration)
Experimental: (§1) A cell growth inhibition assay was performed using two types of cells (human breast cancer cell line SK-BR-3 and human lung cancer cell line NCI-H460).
(§2) Cells of each type were suspended in a medium and seeded into a 96-well multi-well plate at 500 cells/150 μl/well. The test compound was dissolved in DMSO, and this was diluted with medium to prepare a sample solution (DMSO concentration: 0.5% or less). On the day following the seeding, 50 μL of DMSO-containing medium to which the test compound was not added (hereinafter called DMSO diluted solution; DMSO concentration: 0.5% or less) or the sample solution was added to the cells. An MTT assay was performed immediately after and 72 hours after adding the sample solution or the DMSO diluted solution to the cells. The MTT assay was performed as follows.
(§3) 5 mg/mL of an MTT (3-(4,5-dimethylthiazol-2-yl)-2,5-diphenyltetrazolium bromide) solution was added at 20 μL per well. Thereafter, the plate was incubated at 37° C. in 5% CO2 for four hours. The plate was centrifuged at 1200 rpm for five minutes, and then the culture supernatant was removed by suction using a dispenser. DMSO was added at 150 μL per well, and the generated formazan was dissolved. The plate was stirred using a plate mixer to uniformly color the respective wells. The absorbance of each well was measured using a plate reader at an OD of 540 nm with a reference of 660 nm.
(§4) T/C (%) for each concentration was determined by the following calculation formula and a dose-response curve was drawn to calculate the 50% growth inhibitory concentration (GI50 value), based on the assumption that the OD value measured immediately after adding the sample solution was S, the OD value measured 72 hours after adding the sample solution was T, and the OD value measured 72 hours after adding the DMSO diluted solution was C. T/C(%)=(T−S)/(C−S)×100

[2] = biological target: T1, recombinant yeast Hsp90 protein (rHsp90) (Saccharomyces cerevisiae, UniProt P02829); assay: Hsp90 ATPase assay; assay type: biochemical; conditions: rHsp90 100 μg/mL, ATP 100 μM, 37° C., two hours, BIOMOL GREEN; read-out: IC50 value (concentration for 50% inhibition of ATP activity)
T1 construct: made in house; host or cells: Escherichia coli
Experimental: An Hsp90 ATPase assay was performed using a recombinant yeast Hsp90 protein (hereinafter called rHsp90). Yeast Hsp90 DNA was cloned from a yeast genomic DNA library according to a conventional method. The cloned yeast Hsp90 DNA was incorporated into a plasmid for expression in Escherichia coli, and the plasmid was expressed in Escherichia coli to obtain rHsp90.
The test compound was dissolved in DMSO to 10 mM. The dissolved solution was diluted with DMSO to eight concentrations ranging in three-fold dilutions from 4 mM. Each diluted solution was further 10-fold diluted with an assay buffer (100 mM Tris, pH 7.4, 20 mM KCl, 6 mM MgCl2) (concentration of each test compound solution: 400 μM, 133 μM, 44.4 μM, 14.8 μM, 4.94 μM, 1.65 μM, 0.549 μM, 0.183 μM; DMSO concentration: 10%).
rHsp90 was dissolved in a TE buffer (20 mM Tris, pH 7.4, 1 mM EDTA) to a concentration of 2.531 mg/mL. The dissolved solution was diluted with assay buffer to 125 μg/mL and dispensed to a 96-well assay plate at 40 μL per well (final concentration: 100 μg/mL).
The test compound solution was dispensed at 5 μL per well, and then the solutions in the respective wells were mixed using a plate mixer. 100 mM ATP (Sigma, Catalog No. A-7699) was diluted with assay buffer to 1 mM and dispensed at 5 μL per well (final concentration: 100 μM). The solutions in the respective wells were mixed using a plate mixer, and then the assay plate was allowed to stand in an incubator set at 37° C. for two hours.
BIOMOL GREEN Reagent (BIOMOL, Catalog No. AK-111) was dispensed at 100 μL per well, and the reaction was terminated. The solutions in the respective wells were mixed by pipetting (three times), and then 34% sodium citrate was dispensed at 10 μL per well. The solutions in the respective wells were mixed by pipetting (three times), and then the assay plate was left to stand at room temperature for 10 minutes. The absorbance at 630 nm of each well was measured with a microplate reader.
The ratio of the absorbance of the test compound-added group to the absorbance of the test compound-free group (T/C value) was determined by the following calculation formula, based on the assumption that the absorbance of the well to which the test compound and rHsp90 were added was A, the absorbance of the well to which only rHsp90 was added was B, and the absorbance of the well to which neither the test compound nor rHsp90 was added was C. T/C=(A−C)/(B−C)
Further, the concentration for 50% inhibition of ATP activity (IC50 value) was calculated using GraphPad Prism 4 (GraphPad Software, Inc.).

[3] = system: human lung cancer cell line NCI-H460; assay: Cell growth inhibition assay (MTT), NCI-H460; assay type: cell-based; conditions: Homo sapiens, read-out: GI50 value (50% growth inhibitory concentration)
Experimental: as §1, §2, §3, §4

T1 sequence (P02829 whole entry): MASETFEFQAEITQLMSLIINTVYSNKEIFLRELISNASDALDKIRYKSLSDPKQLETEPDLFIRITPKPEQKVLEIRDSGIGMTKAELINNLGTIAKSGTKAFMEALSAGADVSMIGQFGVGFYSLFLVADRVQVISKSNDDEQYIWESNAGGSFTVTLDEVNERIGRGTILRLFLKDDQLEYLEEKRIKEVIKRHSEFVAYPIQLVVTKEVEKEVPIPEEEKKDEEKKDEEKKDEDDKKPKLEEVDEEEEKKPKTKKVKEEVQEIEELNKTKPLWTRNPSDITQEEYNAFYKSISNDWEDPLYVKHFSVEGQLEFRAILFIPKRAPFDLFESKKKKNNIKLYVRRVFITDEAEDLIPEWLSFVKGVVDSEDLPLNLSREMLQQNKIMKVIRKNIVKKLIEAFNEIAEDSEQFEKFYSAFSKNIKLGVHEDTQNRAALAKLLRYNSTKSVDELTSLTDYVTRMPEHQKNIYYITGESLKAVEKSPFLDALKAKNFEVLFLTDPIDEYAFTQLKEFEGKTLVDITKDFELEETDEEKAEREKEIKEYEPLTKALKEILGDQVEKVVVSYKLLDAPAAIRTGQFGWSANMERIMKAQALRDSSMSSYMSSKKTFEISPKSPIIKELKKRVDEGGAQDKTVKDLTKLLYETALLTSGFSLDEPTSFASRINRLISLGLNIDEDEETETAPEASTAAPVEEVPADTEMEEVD

GI50 ([1]; SK-BR-3, MTT assay, 72 hours) [nM]	IC50 [2] [nM]	GI50 ([3]; NCI-H460, MTT assay, 72 hours) [nM]	Structure (SMILES)	GI50 ([1]; SK-BR-3, 72 h) [nM]	GI50 ([3]; NCI-H460, 72 h) [nM]
20	1500	57	COc1c(C)cnc(Cn2nc3c4c(nc(N)nc42)SC(C(=O)Nc2nccs2)C3)c1C (stereo not drawn) [Example 191, 4-Amino-2-[(4-methoxy-3,5-dimethylpyridin-2-yl)methyl]-N-(1,3-thiazol-2-yl)-7,8-dihydro-2H-6-thia-1,2,3,5-tetraazaacenaphthylene-7-carboxamide]	–	–
137	1200	159	CNC(=O)C1Cc2nn(Cc3ncc(C)c(OC)c3C)c3nc(N)nc(c23)S1 (stereo not drawn) [Example 9, 4-Amino-2-[(4-methoxy-3,5-dimethylpyridin-2-yl)methyl]-N-methyl-7,8-dihydro-2H-6-thia-1,2,3,5-tetraazaacenaphthylene-7-carboxamide]	–	–

Structure (SMILES)	GI50 ([1]; SK-BR-3, MTT assay, 72 hours) [nM]	IC50 [2] [nM]	GI50 ([3]; NCI-H460, MTT assay, 72 hours) [nM]	GI50 ([1]; SK-BR-3, 72 h) [nM]	GI50 ([3]; NCI-H460, 72 h) [nM]
COc1c(C)cnc(Cn2nc3c4c(nc(N)nc42)SC=C3)c1C [Example 151, 2-[(4-Methoxy-3,5-dimethylpyridin-2-yl)methyl]-2H-6-thia-1,2,3,5-tetraazaacenaphthylen-4-amine]	–	890	–	48	110
